From the supplement of paper PMC10307832

How the values were obtained:
Test in all cases: relative viability (nuclei count vs DMSO), 5 days (fraction); higher = more cells survive
[1] = compound: CCC1=CN=CN=C1N2CCN(CC2)CC3=NC4=C(N3)C=C(C=C4)C(F)(F)F + Cc1nc(NC(=O)N2CCC[C@H]2C(N)=O)sc1-c1ccnc(C(C)(C)C(F)(F)F)c1 [Alpelisib] (partner 2 µM)
Outline: (§1)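 Nuclei were stained with Hoechst during a one-step fixation (final 0.05% Triton X-100, 1% formaldehyde, 1 ug/ml Hoechst) carried out 5 days after dosing, then counted on 4× images. The cells, lung cancer lines in 1536-well plates, had been dosed by pin tool the day after seeding with one drug alone or a fixed anchor-drug dose plus five library-drug doses (not always all listed) in √10 steps. Relative viability is the nuclei count in treated wells divided by that in vehicle wells, and each value is the median of duplicate plates.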

[2] = compound: CCn1c(-c2nonc2N)nc2cnc(Oc3cccc(NC(=O)c4ccc(OCCN5CCOCC5)cc4)c3)cc21 + CC(=O)Nc1cccc(-n2c(=O)n(C3CC3)c(=O)c3c(Nc4ccc(I)cc4F)n(C)c(=O)c(C)c32)c1 [Trametinib] (partner 0.02 µM)
Outline: as §1

[3] = compound: CCn1c(-c2nonc2N)nc2cnc(Oc3cccc(NC(=O)c4ccc(OCCN5CCOCC5)cc4)c3)cc21 + O=C(CCCCCCC(=O)Nc1ccccc1)NO [Vorinostat] (partner 1 µM)
Outline: as §1

[4] = compound: N=C1NC(=O)/C(=C/c2ccc(O)cc2)S1 [Mirin] + Cc1nc(Nc2ncc(C(=O)Nc3c(C)cccc3Cl)s2)cc(N2CCN(CCO)CC2)n1 [Dasatinib] (partner 0.075 µM)
Outline: as §1

With NCI-H1355 the relative viability ([1]; first compound 0.04 µM) was 0.815, the relative viability ([1]; first compound 0.1265 µM) was 0.74 and the relative viability ([1]; first compound 0.4 µM) was 0.807. For the same cell line, the relative viability ([1]; first compound 1.265 µM) was 0.732, the relative viability ([1]; first compound 4 µM) was 0.797 and the relative viability ([2]; first compound 0.04 µM) was 0.322. The relative viability ([2]; first compound 0.1265 µM) was 0.433, the relative viability ([2]; first compound 0.4 µM) was 0.434 and the relative viability ([2]; first compound 1.265 µM) was 0.392. The relative viability ([2]; first compound 4 µM) was 0.398, the relative viability ([3]; first compound 0.04 µM) was 0.653 and the relative viability ([3]; first compound 0.1265 µM) was 0.668. The relative viability ([3]; first compound 0.4 µM) was 0.413, the relative viability ([3]; first compound 1.265 µM) was 0.377 and the relative viability ([3]; first compound 4 µM) was 0.313. It also gave a relative viability ([4]; first compound 0.25 µM) of 0.766, a relative viability ([4]; first compound 0.7906 µM) of 0.724 and a relative viability ([4]; first compound 2.5 µM) of 0.691. The relative viability ([4]; first compound 7.906 µM) was 0.564 and the relative viability ([4]; first compound 25 µM) was 0.648.
EKVX gave a relative viability ([1]; first compound 0.04 µM) of 0.875, a relative viability ([1]; first compound 0.1265 µM) of 0.828 and a relative viability ([1]; first compound 0.4 µM) of 0.762. For the same cell line, the relative viability ([1]; first compound 1.265 µM) was 0.699, the relative viability ([1]; first compound 4 µM) was 0.866 and the relative viability ([2]; first compound 0.04 µM) was 0.411. The relative viability ([2]; first compound 0.1265 µM) was 0.389, the relative viability ([2]; first compound 0.4 µM) was 0.404 and the relative viability ([2]; first compound 1.265 µM) was 0.371. For the same cell line, the relative viability ([2]; first compound 4 µM) was 0.415, the relative viability ([3]; first compound 0.04 µM) was 0.786 and the relative viability ([3]; first compound 0.1265 µM) was 0.365. The relative viability ([3]; first compound 0.4 µM) was 0.757, the relative viability ([3]; first compound 1.265 µM) was 0.513 and the relative viability ([3]; first compound 4 µM) was 0.647. It also gave a relative viability ([4]; first compound 0.25 µM) of 0.671, a relative viability ([4]; first compound 2.5 µM) of 0.565 and a relative viability ([4]; first compound 7.906 µM) of 0.494. It also gave a relative viability ([4]; first compound 25 µM) of 0.564.
NCI-H460 showed a relative viability ([1]; first compound 0.04 µM) of 0.445, a relative viability ([1]; first compound 0.1265 µM) of 0.559 and a relative viability ([1]; first compound 0.4 µM) of 0.385. It also gave a relative viability ([1]; first compound 1.265 µM) of 0.398, a relative viability ([1]; first compound 4 µM) of 0.583 and a relative viability ([2]; first compound 0.04 µM) of 0.132. The relative viability ([2]; first compound 0.1265 µM) was 0.203, the relative viability ([2]; first compound 0.4 µM) was 0.0433 and the relative viability ([2]; first compound 1.265 µM) was 0.0407. It also gave a relative viability ([2]; first compound 4 µM) of 0.0579, a relative viability ([3]; first compound 0.04 µM) of 0.952 and a relative viability ([3]; first compound 0.1265 µM) of 0.729. The relative viability ([3]; first compound 0.4 µM) was 0.471, the relative viability ([3]; first compound 1.265 µM) was 0.189 and the relative viability ([3]; first compound 4 µM) was 0.107. The relative viability ([4]; first compound 0.25 µM) was 0.566, the relative viability ([4]; first compound 0.7906 µM) was 0.487 and the relative viability ([4]; first compound 2.5 µM) was 0.468. The relative viability ([4]; first compound 7.906 µM) was 0.457 and the relative viability ([4]; first compound 25 µM) was 0.38.
NCI-H1975 showed a relative viability ([1]; first compound 0.04 µM) of 0.641, a relative viability ([1]; first compound 0.1265 µM) of 0.633 and a relative viability ([1]; first compound 0.4 µM) of 0.605. For the same cell line, the relative viability ([1]; first compound 1.265 µM) was 0.61, the relative viability ([1]; first compound 4 µM) was 0.527 and the relative viability ([2]; first compound 0.04 µM) was 0.261. It also gave a relative viability ([2]; first compound 0.1265 µM) of 0.256, a relative viability ([2]; first compound 0.4 µM) of 0.219 and a relative viability ([2]; first compound 1.265 µM) of 0.154. It also gave a relative viability ([2]; first compound 4 µM) of 0.176, a relative viability ([3]; first compound 0.04 µM) of 0.666 and a relative viability ([3]; first compound 0.1265 µM) of 0.623. It also gave a relative viability ([3]; first compound 0.4 µM) of 0.554, a relative viability ([3]; first compound 1.265 µM) of 0.37 and a relative viability ([3]; first compound 4 µM) of 0.273. The relative viability ([4]; first compound 0.25 µM) was 0.437, the relative viability ([4]; first compound 0.7906 µM) was 0.482 and the relative viability ([4]; first compound 2.5 µM) was 0.384. It also gave a relative viability ([4]; first compound 7.906 µM) of 0.417 and a relative viability ([4]; first compound 25 µM) of 0.354.
Cell Line HCC-78 has a relative viability ([1]; first compound 0.04 µM) of 0.188, a relative viability ([1]; first compound 0.1265 µM) of 0.348 and a relative viability ([1]; first compound 0.4 µM) of 0.333. The relative viability ([1]; first compound 1.265 µM) was 0.4, the relative viability ([1]; first compound 4 µM) was 0.279 and the relative viability ([2]; first compound 0.04 µM) was 0.796. The relative viability ([2]; first compound 0.1265 µM) was 0.469, the relative viability ([2]; first compound 1.265 µM) was 0.847 and the relative viability ([2]; first compound 4 µM) was 1.06. For the same cell line, the relative viability ([3]; first compound 0.04 µM) was 0.43, the relative viability ([3]; first compound 0.1265 µM) was 0.42 and the relative viability ([3]; first compound 1.265 µM) was 0.505. It also gave a relative viability ([3]; first compound 4 µM) of 0.638, a relative viability ([4]; first compound 0.25 µM) of 0.361 and a relative viability ([4]; first compound 0.7906 µM) of 0.283. For the same cell line, the relative viability ([4]; first compound 2.5 µM) was 0.577, the relative viability ([4]; first compound 7.906 µM) was 0.374 and the relative viability ([4]; first compound 25 µM) was 0.31.
Work on NCI-H2085 yielded a relative viability ([1]; first compound 0.04 µM) of 1.05, a relative viability ([1]; first compound 0.1265 µM) of 0.915 and a relative viability ([1]; first compound 0.4 µM) of 0.991. It also gave a relative viability ([1]; first compound 1.265 µM) of 0.879, a relative viability ([1]; first compound 4 µM) of 0.832 and a relative viability ([2]; first compound 0.04 µM) of 0.634. For the same cell line, the relative viability ([2]; first compound 0.1265 µM) was 0.57, the relative viability ([2]; first compound 0.4 µM) was 0.521 and the relative viability ([2]; first compound 1.265 µM) was 0.574. It also gave a relative viability ([2]; first compound 4 µM) of 0.535, a relative viability ([3]; first compound 0.04 µM) of 0.735 and a relative viability ([3]; first compound 0.1265 µM) of 0.633. For the same cell line, the relative viability ([3]; first compound 0.4 µM) was 0.579, the relative viability ([3]; first compound 1.265 µM) was 0.54 and the relative viability ([3]; first compound 4 µM) was 0.585. It also gave a relative viability ([4]; first compound 0.25 µM) of 0.229, a relative viability ([4]; first compound 0.7906 µM) of 0.207 and a relative viability ([4]; first compound 2.5 µM) of 0.28. For the same cell line, the relative viability ([4]; first compound 7.906 µM) was 0.252 and the relative viability ([4]; first compound 25 µM) was 0.237.
